ChEMBL document CHEMBL4138123, “Design, synthesis and biological evaluation of novel pyrazolochalcones as potential modulators of PI3K/Akt/mTOR pathway and inducers of apoptosis in breast cancer cells” (Eur J Med Chem, 2017)
pIC50: −log10 of the molar value.

What was measured:
SR [1] = assay: Cytotoxicity against human SR cells assessed as growth inhibition after 48 hrs by sulforhodamine B assay; format: functional; settings: for CC50: read-out: LC50 (the source's name)
HT-29 [2] = assay: Cytotoxicity against human HT-29 cells assessed as growth inhibition after 48 hrs by sulforhodamine B assay; format: functional; settings: HT-29, 48 h
SF-539 = assay: Cytotoxicity against human SF539 cells assessed as growth inhibition after 48 hrs by sulforhodamine B assay; format: functional; settings: SF-539, 48 h
Malme-3M = assay: Cytotoxicity against human MALME-3M cells assessed as growth inhibition after 48 hrs by sulforhodamine B assay; format: functional
SK-MEL-2 = assay: Cytotoxicity against human SK-MEL-2 cells assessed as growth inhibition after 48 hrs by sulforhodamine B assay; format: functional; settings: SK-MEL-2, 48 h
UACC-257 = assay: Cytotoxicity against human UACC257 cells assessed as growth inhibition after 48 hrs by sulforhodamine B assay; format: functional; settings: UACC-257, 48 h
OVCAR-5 = assay: Cytotoxicity against human OVCAR5 cells assessed as growth inhibition after 48 hrs by sulforhodamine B assay; format: functional; settings: OVCAR-5, 48 h
ACHN = assay: Cytotoxicity against human ACHN cells assessed as growth inhibition after 48 hrs by sulforhodamine B assay; format: functional
BT-549 [3] = assay: Cytotoxicity against human BT549 cells assessed as growth inhibition after 48 hrs by sulforhodamine B assay; format: functional; settings: BT-549, 48 h
MDA-MB-231 = assay: Cytotoxicity against human MDA-MB-231 cells assessed as growth inhibition after 48 hrs by MTT assay; format: functional, cell-based; settings: MDA-MB-231, 48 h
786-0 [4] = assay: Cytotoxicity against human 786-0 cells assessed as cell growth at 0.01 uM after 48 hrs by sulforhodamine B assay relative to control; format: functional; settings: 786-0, 48 h, read-out: Activity
NCI-H226 = assay: Cytotoxicity against human NCI-H226 cells assessed as cell growth at 0.01 uM after 48 hrs by sulforhodamine B assay relative to control; format: functional; settings: NCI-H226, 48 h, read-out: Activity
SN12C = assay: Cytotoxicity against human SN12C cells assessed as cell growth at 0.01 uM after 48 hrs by sulforhodamine B assay relative to control; format: functional; settings: read-out: Activity
BT-549 [5] = assay: Cytotoxicity against human BT549 cells assessed as cell growth at 0.01 uM after 48 hrs by sulforhodamine B assay relative to control; format: functional; settings: BT-549, 48 h, read-out: Activity
HL-60(TB) [6] = assay: Cytotoxicity against human HL-60(TB) cells assessed as cell growth at 0.1 uM after 48 hrs by sulforhodamine B assay relative to control; format: functional; settings: HL-60, 48 h, read-out: Activity
U-251 = assay: Cytotoxicity against human U251 cells assessed as cell growth at 0.1 uM after 48 hrs by sulforhodamine B assay relative to control; format: functional; settings: U-251, 48 h, read-out: Activity
M14 [7] = assay: Cytotoxicity against human M14 cells assessed as cell growth at 0.1 uM after 48 hrs by sulforhodamine B assay relative to control; format: functional; settings: M14, 48 h, read-out: Activity
NCI/ADR-RES = assay: Cytotoxicity against human NCI/ADR-RES cells assessed as cell growth at 0.1 uM after 48 hrs by sulforhodamine B assay relative to control; format: functional; settings: read-out: Activity
DU-145 = assay: Cytotoxicity against human DU145 cells assessed as cell growth at 0.1 uM after 48 hrs by sulforhodamine B assay relative to control; format: functional; settings: DU-145, 48 h, read-out: Activity
Hs-578T = assay: Cytotoxicity against human Hs 578T cells assessed as cell growth at 0.1 uM after 48 hrs by sulforhodamine B assay relative to control; format: functional; settings: read-out: Activity
CCRF-CEM = assay: Cytotoxicity against human CCRF-CEM cells assessed as cell growth at 1 uM after 48 hrs by sulforhodamine B assay relative to control; format: functional; settings: read-out: Activity
HOP-62 = assay: Cytotoxicity against human HOP62 cells assessed as cell growth at 1 uM after 48 hrs by sulforhodamine B assay relative to control; format: functional; settings: HOP-62, 48 h, read-out: Activity
HT-29 [8] = assay: Cytotoxicity against human HT-29 cells assessed as cell growth at 1 uM after 48 hrs by sulforhodamine B assay relative to control; format: functional; settings: HT-29, 48 h, read-out: Activity
M14 [9] = assay: Cytotoxicity against human M14 cells assessed as cell growth at 1 uM after 48 hrs by sulforhodamine B assay relative to control; format: functional; settings: M14, 48 h, read-out: Activity
SK-MEL-28 = assay: Cytotoxicity against human SK-MEL-28 cells assessed as cell growth at 1 uM after 48 hrs by sulforhodamine B assay relative to control; format: functional; settings: SK-MEL-28, 48 h, read-out: Activity
SR [10] = assay: Cytotoxicity against human SR cells assessed as cell growth at 10 uM after 48 hrs by sulforhodamine B assay relative to control; format: functional; settings: read-out: Activity
NCI-H522 [11] = assay: Cytotoxicity against human NCI-H522 cells assessed as cell growth at 10 uM after 48 hrs by sulforhodamine B assay relative to control; format: functional; settings: NCI-H522, 48 h, read-out: Activity
RXF 393 = assay: Cytotoxicity against human RXF393 cells assessed as cell growth at 10 uM after 48 hrs by sulforhodamine B assay relative to control; format: functional; settings: RXF 393, 48 h, read-out: Activity
HL-60(TB) [12] = assay: Cytotoxicity against human HL-60(TB) cells assessed as cell growth at 100 uM after 48 hrs by sulforhodamine B assay relative to control; format: functional; settings: HL-60, 48 h, read-out: Activity
RPMI-8226 = assay: Cytotoxicity against human RPMI8226 cells assessed as cell growth at 100 uM after 48 hrs by sulforhodamine B assay relative to control; format: functional; settings: RPMI-8226, 48 h, read-out: Activity
NCI-H23 = assay: Cytotoxicity against human NCI-H23 cells assessed as cell growth at 100 uM after 48 hrs by sulforhodamine B assay relative to control; format: functional; settings: NCI-H23, 48 h, read-out: Activity
NCI-H522 [13] = assay: Cytotoxicity against human NCI-H522 cells assessed as cell growth at 100 uM after 48 hrs by sulforhodamine B assay relative to control; format: functional; settings: NCI-H522, 48 h, read-out: Activity
SW-620 = assay: Cytotoxicity against human SW620 cells assessed as cell growth at 100 uM after 48 hrs by sulforhodamine B assay relative to control; format: functional; settings: SW-620, 48 h, read-out: Activity
M14 [14] = assay: Cytotoxicity against human M14 cells assessed as cell growth at 100 uM after 48 hrs by sulforhodamine B assay relative to control; format: functional; settings: M14, 48 h, read-out: Activity
IGROV-1 = assay: Cytotoxicity against human IGROV1 cells assessed as cell growth at 100 uM after 48 hrs by sulforhodamine B assay relative to control; format: functional; settings: IGROV-1, 48 h, read-out: Activity
786-0 [15] = assay: Cytotoxicity against human 786-0 cells assessed as cell growth at 100 uM after 48 hrs by sulforhodamine B assay relative to control; format: functional; settings: 786-0, 48 h, read-out: Activity

`COc1ccc(-c2cc(/C=C/C(=O)c3cc(OC)c(OC)c(OC)c3)[nH]n2)cc1OC` was tested, and the GI50 (SR [1]) was 0.2 µM, the TGI (SR [1]) was 2.26 µM and the CC50 (SR [1]) was greater than 100 µM. It also gave a GI50 (HT-29 [2]) of 1.3 µM, an LC50 (HT-29 [2]) of 5.75 µM and a TGI (HT-29 [2]) of 2.73 µM. It also gave a GI50 (SF-539) of 0.3 µM, an LC50 (concentration killing 50% of cells) (SF-539) of 4.57 µM and a TGI (SF-539) of 1.48 µM. For the same compound, the GI50 (Malme-3M) was 2.32 µM, the LC50 (Malme-3M) was 47.5 µM and the TGI (Malme-3M) was 6.19 µM. For the same compound, the GI50 (SK-MEL-2) was 2.69 µM, the LC50 (concentration killing 50% of cells) (SK-MEL-2) was 29.5 µM and the TGI (SK-MEL-2) was 7.7 µM. It also gave a GI50 (UACC-257) of 1.79 µM, an LC50 (UACC-257) of 8.05 µM and a TGI (UACC-257) of 3.8 µM. For the same compound, the GI50 (OVCAR-5) was 1.76 µM, the LC50 (OVCAR-5) was 13.7 µM and the TGI (OVCAR-5) was 4.31 µM. For the same compound, the GI50 (ACHN) was 1.45 µM, the LC50 (ACHN) was 5.5 µM and the TGI (ACHN) was 2.82 µM. For the same compound, the GI50 (BT-549 [3]) was 1.36 µM, the LC50 (concentration killing 50% of cells) (BT-549 [3]) was 6.32 µM and the TGI (BT-549 [3]) was 2.93 µM. For the same compound, the pIC50 (MDA-MB-231) was 5.70, the growth at 0.01 µM (786-0 [4]) was 100% and the growth at 0.01 µM (NCI-H226) was 93%. It also gave a growth at 0.01 µM (SN12C) of 98%, a growth at 0.01 µM (BT-549 [5]) of 96% and a growth at 0.1 µM (HL-60(TB) [6]) of 93%. The growth at 0.1 µM (U-251) was 92%, the growth at 0.1 µM (M14 [7]) was 92% and the growth at 0.1 µM (NCI/ADR-RES) was 97%. For the same compound, the growth at 0.1 µM (DU-145) was 103%, the growth at 0.1 µM (Hs-578T) was 97% and the growth at 1 µM (CCRF-CEM) was 14%. For the same compound, the growth at 1 µM (HOP-62) was 71%, the growth at 1 µM (HT-29 [8]) was 68% and the growth at 1 µM (M14 [9]) was 91%. The growth at 1 µM (SK-MEL-28) was 89%, the growth at 10 µM (SR [10]) was -10% and the growth at 10 µM (NCI-H522 [11]) was -94%. It also gave a growth at 10 µM (RXF 393) of -80%, a growth at 100 µM (HL-60(TB) [12]) of -8% and a growth at 100 µM (RPMI-8226) of -31%. It also gave a growth at 100 µM (NCI-H23) of -50%, a growth at 100 µM (NCI-H522 [13]) of -90% and a growth at 100 µM (SW-620) of -43%. The growth at 100 µM (M14 [14]) was -74%, the growth at 100 µM (IGROV-1) was -72% and the growth at 100 µM (786-0 [15]) was -90%.

`COc1ccc(C(=O)/C=C/c2cc(-c3cc(OC)c(OC)c(OC)c3)n[nH]2)cc1` was tested, and the TGI (SR [1]) was 23.9 µM, the CC50 (SR [1]) was greater than 100 µM and the TGI (HT-29 [2]) was 4.19 µM. For the same compound, the GI50 (SF-539) was 1.62 µM, the LC50 (concentration killing 50% of cells) (SF-539) was 5.85 µM and the TGI (SF-539) was 3.08 µM. For the same compound, the TGI (Malme-3M) was 3.85 µM, the LC50 (concentration killing 50% of cells) (SK-MEL-2) was 99.2 µM and the TGI (SK-MEL-2) was 19.6 µM. The TGI (UACC-257) was 3.74 µM, the LC50 (OVCAR-5) was 7.6 µM and the TGI (OVCAR-5) was 3.78 µM. For the same compound, the LC50 (ACHN) was 6.71 µM, the TGI (ACHN) was 3.63 µM and the TGI (BT-549 [3]) was 3.86 µM. For the same compound, the pIC50 (MDA-MB-231) was 6.02, the growth at 0.01 µM (786-0 [4]) was 98% and the growth at 0.01 µM (NCI-H226) was 99%. It also gave a growth at 0.01 µM (SN12C) of 99%, a growth at 0.01 µM (BT-549 [5]) of 97% and a growth at 0.1 µM (HL-60(TB) [6]) of 108%. For the same compound, the growth at 0.1 µM (U-251) was 97%, the growth at 0.1 µM (M14 [7]) was 97% and the growth at 0.1 µM (NCI/ADR-RES) was 97%. For the same compound, the growth at 0.1 µM (DU-145) was 101%, the growth at 0.1 µM (Hs-578T) was 100% and the growth at 1 µM (CCRF-CEM) was 62%. For the same compound, the growth at 1 µM (HOP-62) was 87%, the growth at 1 µM (HT-29 [8]) was 95% and the growth at 1 µM (M14 [9]) was 99%. It also gave a growth at 1 µM (SK-MEL-28) of 101%, a growth at 10 µM (SR [10]) of 3% and a growth at 10 µM (NCI-H522 [11]) of -73%. The growth at 10 µM (RXF 393) was -97%, the growth at 100 µM (HL-60(TB) [12]) was -31% and the growth at 100 µM (RPMI-8226) was -34%. The growth at 100 µM (NCI-H23) was -23%, the growth at 100 µM (NCI-H522 [13]) was -62% and the growth at 100 µM (SW-620) was -39%. The growth at 100 µM (M14 [14]) was -7%, the growth at 100 µM (IGROV-1) was -29% and the growth at 100 µM (786-0 [15]) was -48%.
